≈ marks a conversion by molar mass, not a printed value. Read-outs that look alike come from different tables or passages of the source.
Assays:
[1] = system: SARS-CoV-2 (hCoV-19/Egypt/NRC-3/2020 isolate); test: microbe, parasite or virus in culture; type: cell-based; conditions: Severe acute respiratory syndrome coronavirus 2, Vero C1008, 48 h, read-out: IC50, in vitro antiviral activity against SARS-CoV-2
[2] = Equilibrium (saturated) solubility of SA in oils, surfactants and cosurfactants (isothermal method); type: physicochemical; conditions: room temperature; for solubility at 3 days: read-out: Saturated solubility of sinapic acid; for Saturated solubility of sinapic acid: 3 days, listed as SA
Excerpt: The equilibrium solubility of SA was studied in various oils, surfactants, and cosurfactants. Oils of different saturation degrees (medium- or long-chain triglycerides) were utilized to create an SNE to test their solubilization and nano-emulsification ability. The oil with the highest ability to solubilize SA was chosen due to its significant impact on drug solubilization ability and absorption. The tested oils included Labrafil, Capryol-90, Labrafac, olive oil, anise oil, almond oil, soybean oil, and corn oil. The screened surfactants were hydrophilic non-ionic surfactants (Cremophor El, Tween 20, and Tween 80); they have high HLB values and low oral toxicity. Labrasol, Transcutol, PEG 400, and propylene glycol were the screened cosurfactants. An isothermal method previously reported in the literature was utilized for the solubility determination. In brief, 300 mg of SA was added to 1 mL of each component in screw-capped glass vials and mixed using a vortex mixer. The mixtures were then transferred to a thermodynamic water bath shaker (JULABO™, Julabo Labortechnik GMBH, Seelbach, Germany) for continuous shaking at a speed of 100 rpm at room temperature for three days, followed by centrifugation at 4000 rpm for 25 min. SA concentration was measured spectrophotometrically at 322 nm after the supernatant was diluted with methanol using a magnetic stirrer at 500 rpm for 2 min at room temperature. The results of this study provide important insights into the solubility of SA in various oils, surfactants, and cosurfactants, which is crucial for the formulation of SA in a self-nanoemulsifying dosage form.

[3] = biological target: T1, 3CL Protease, tagged (SARS-CoV-2) (Mpro) (Severe acute respiratory syndrome coronavirus 2, UniProt P0DTD1); test: Mpro enzyme assay (3CL Protease FRET assay kit); type: biochemical; conditions: excitation 360 nm, emission 460 nm, read-out: IC50, in vitro Mpro inhibitory activity
T1 construct: 3CL Protease, tagged (SARS-CoV-2) Assay Kit; unspecified tag (printed only as 'tagged'); purchased BPS Bioscience, Inc. 79955-1
Excerpt: The in vitro FRET assay was monitored at an emission wavelength of 460 nm with an excitation at 360 nm using a Flx800 fluorescence spectrophotometer (BioTek Instruments, Winooski, VT, USA).

in vitro = conditions: African green monkey

Q: Which results are given for COc1cc(/C=C/C(=O)O)cc(OC)c1O [Sinapic acid]?
A: IC50 [1]: 2.53 ± 0.065 µg/mL (≈ 0.0113 mM); solubility at 3 days ([2]; Capryol 90 (oil), oil or lipid, thermodynamic from solid, in Capryol 90 (oil)): 22.5 mg/mL (≈ 100 mM); solubility at 3 days ([2]; Cremophore El (surfactant), thermodynamic from solid, in Cremophore El (surfactant)): 138 mg/mL (≈ 617 mM); solubility at 3 days ([2]; Labrafac (oil), oil or lipid, thermodynamic from solid, in Labrafac (oil)): 14.3 mg/mL (≈ 63.9 mM); solubility at 3 days ([2]; Labrafil (oil), in Labrafil (oil)): 30 mg/mL (≈ 134 mM); solubility at 3 days ([2]; Labrafil (oil), oil or lipid, thermodynamic from solid, in Labrafil (oil)): 30 mg/mL (≈ 134 mM); solubility at 3 days ([2]; Labrasol, thermodynamic from solid, in Labrasol): 60.4 mg/mL (≈ 269 mM); solubility at 3 days ([2]; PEG 400 (co-surfactant), organic solvent or mixture, thermodynamic from solid, in PEG 400 (co-surfactant)): 102 mg/mL (≈ 455 mM); solubility at 3 days ([2]; Transcutol (co-surfactant), organic solvent or mixture, thermodynamic from solid, in Transcutol (co-surfactant)): 193 mg/mL (≈ 860 mM); solubility at 3 days ([2]; Tween 20 (surfactant), thermodynamic from solid, in Tween 20 (surfactant)): 123 mg/mL (≈ 550 mM); solubility at 3 days ([2]; Tween 80 (surfactant), thermodynamic from solid, in Tween 80 (surfactant)): 78.8 mg/mL (≈ 352 mM); solubility at 3 days ([2]; almond oil, oil or lipid, thermodynamic from solid, in almond oil): 1.71 mg/mL (≈ 7.63 mM); solubility at 3 days ([2]; anise oil, oil or lipid, thermodynamic from solid, in anise oil): 5.02 mg/mL (≈ 22.4 mM); solubility at 3 days ([2]; corn oil, oil or lipid, thermodynamic from solid, in corn oil): 0.81 mg/mL (≈ 3.61 mM); Saturated solubility of sinapic acid ([2]; in Cremophore El (surfactant)): 138 mg/mL; Saturated solubility of sinapic acid ([2]; in Labrasol): 60 mg/mL; Saturated solubility of sinapic acid ([2]; in PEG 400 (co-surfactant)): 102 mg/mL; Saturated solubility of sinapic acid ([2]; in Transcutol (co-surfactant)): 192 mg/mL; Saturated solubility of sinapic acid ([2]; in Tween 80 (surfactant)): 78 mg/mL; Saturated solubility of sinapic acid ([2]; in propylene glycol (co-surfactant)): 58 mg/mL; solubility at 3 days ([2]; olive oil, oil or lipid, thermodynamic from solid, in olive oil): 7.11 mg/mL (≈ 31.7 mM); solubility at 3 days ([2]; propylene glycol (co-surfactant), organic solvent or mixture, thermodynamic from solid, in propylene glycol (co-surfactant)): 58.4 mg/mL (≈ 260 mM); solubility at 3 days ([2]; soybean oil, oil or lipid, thermodynamic from solid, in soybean oil): 1.25 mg/mL (≈ 5.58 mM); IC50 [3]: 6.74 ± 0.95 µM; CC50 (in vitro): 196 ± 15.1 µg/mL (≈ 0.875 mM)

Q: For CCC(CC)COC(=O)[C@H](C)N[P@](=O)(OC[C@H]1O[C@@](C#N)(c2ccc3c(N)ncnn23)[C@H](O)[C@@H]1O)Oc1ccccc1 [remdesivir, reference compound], which IC50 ([1]; Vero E6 cells, MOI 0.5, viral RNA by real-time PCR after 2 days, n = 3) is on record?
A: 0.036 ± 0.002 µg/mL (≈ 5.97e-05 mM)
